Laboratory results from patent US9636418B2 (priority 2013, dated 2017).
Values joined by “and” are separate entries in the source; they are usually repeats but may differ in a detail not shown here. Identical values can stand only once.

molecular target: hNav1.7 (Homo sapiens, UniProt Q15858); assay: cell-based; format: cell-based; conditions: PatchXpress, tonic block; read-out: PX hNav1.7 Tonic IC50
Sequence (Q15858 whole entry): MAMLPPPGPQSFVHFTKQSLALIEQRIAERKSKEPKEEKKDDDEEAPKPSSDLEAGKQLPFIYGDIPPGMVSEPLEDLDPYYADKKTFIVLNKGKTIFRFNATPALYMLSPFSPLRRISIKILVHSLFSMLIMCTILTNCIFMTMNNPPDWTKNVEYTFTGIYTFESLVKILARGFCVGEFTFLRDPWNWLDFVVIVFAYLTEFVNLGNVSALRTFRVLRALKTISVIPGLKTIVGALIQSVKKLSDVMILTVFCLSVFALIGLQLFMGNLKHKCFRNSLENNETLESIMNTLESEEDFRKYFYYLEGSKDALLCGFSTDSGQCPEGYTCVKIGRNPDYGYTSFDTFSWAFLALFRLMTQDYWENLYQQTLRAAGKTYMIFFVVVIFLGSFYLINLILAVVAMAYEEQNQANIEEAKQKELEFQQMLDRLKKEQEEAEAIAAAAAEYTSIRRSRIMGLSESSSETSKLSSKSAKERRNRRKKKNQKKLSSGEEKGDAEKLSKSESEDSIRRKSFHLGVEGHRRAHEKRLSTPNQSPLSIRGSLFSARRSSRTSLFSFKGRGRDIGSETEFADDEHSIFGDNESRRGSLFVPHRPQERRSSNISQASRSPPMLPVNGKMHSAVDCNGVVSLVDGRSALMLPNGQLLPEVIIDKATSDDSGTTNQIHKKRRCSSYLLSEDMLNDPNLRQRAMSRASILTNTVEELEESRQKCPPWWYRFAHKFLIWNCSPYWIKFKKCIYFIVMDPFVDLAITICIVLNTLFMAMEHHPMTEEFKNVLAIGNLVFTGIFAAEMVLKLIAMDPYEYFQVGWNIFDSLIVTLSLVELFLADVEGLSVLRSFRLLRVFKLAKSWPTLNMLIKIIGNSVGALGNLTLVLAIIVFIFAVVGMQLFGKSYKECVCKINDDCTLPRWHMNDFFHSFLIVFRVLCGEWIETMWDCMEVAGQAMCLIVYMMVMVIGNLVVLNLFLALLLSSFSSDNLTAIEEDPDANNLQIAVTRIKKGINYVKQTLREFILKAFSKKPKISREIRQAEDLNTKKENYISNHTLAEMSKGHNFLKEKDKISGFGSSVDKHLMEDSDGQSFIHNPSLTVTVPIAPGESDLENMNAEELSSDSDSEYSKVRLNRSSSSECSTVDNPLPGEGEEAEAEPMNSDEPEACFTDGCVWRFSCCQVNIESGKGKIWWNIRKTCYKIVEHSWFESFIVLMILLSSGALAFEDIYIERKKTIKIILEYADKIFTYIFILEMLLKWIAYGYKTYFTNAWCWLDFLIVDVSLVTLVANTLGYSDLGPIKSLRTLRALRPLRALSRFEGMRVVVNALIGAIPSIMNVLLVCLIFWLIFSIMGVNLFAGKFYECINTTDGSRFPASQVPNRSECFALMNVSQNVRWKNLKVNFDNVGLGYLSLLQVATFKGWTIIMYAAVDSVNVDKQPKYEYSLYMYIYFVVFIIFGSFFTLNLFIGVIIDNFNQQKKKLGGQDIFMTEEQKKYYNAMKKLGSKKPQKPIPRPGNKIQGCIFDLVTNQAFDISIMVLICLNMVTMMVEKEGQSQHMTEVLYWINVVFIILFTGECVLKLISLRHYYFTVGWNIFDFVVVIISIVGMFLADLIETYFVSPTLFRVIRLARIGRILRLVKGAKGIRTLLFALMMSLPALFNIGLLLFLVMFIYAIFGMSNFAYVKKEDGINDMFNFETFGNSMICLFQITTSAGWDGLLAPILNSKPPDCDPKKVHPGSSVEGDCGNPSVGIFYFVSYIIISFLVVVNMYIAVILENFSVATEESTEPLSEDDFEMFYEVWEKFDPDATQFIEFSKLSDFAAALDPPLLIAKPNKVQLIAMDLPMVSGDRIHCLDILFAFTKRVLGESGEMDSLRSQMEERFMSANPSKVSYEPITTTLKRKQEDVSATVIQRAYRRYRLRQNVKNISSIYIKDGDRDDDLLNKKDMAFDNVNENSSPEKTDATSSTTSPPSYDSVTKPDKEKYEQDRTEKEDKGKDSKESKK

`C#CC[C@H](N)C(=O)NCCCC[C@@H]1NC(=O)[C@H](CCCNC(=N)N)NC(=O)[C@H](CCCCN)NC(=O)[C@H](CO)NC(=O)[C@H](CC(=O)O)NC(=O)[C@@H]2CSSC[C@@H]3NC(=O)[C@H](CCC(=O)O)NC(=O)[C@H](CC(C)C)NC(=O)CNC(=O)[C@H](CCC(=O)O)NC(=O)[C@H](CSSC[C@H](NC(=O)[C@H](Cc4ccc(O)cc4)NC(=O)[C@@H](N)CCC)C(=O)N[C@@H](CCC(N)=O)C(=O)N[C@@H](CCCCN)C(=O)N[C@@H](Cc4c[nH]c5ccccc45)C(=O)N[C@@H](CCCC)C(=O)N[C@@H](Cc4c[nH]c5ccccc45)C(=O)N[C@@H]([C@@H](C)O)C(=O)N2)NC(=O)[C@H](CSSC[C@@H](C(=O)N[C@@H](CCCNC(=N)N)C(=O)N[C@@H](CCCCN)C(=O)N[C@@H](Cc2ccc(O)cc2)C(=O)N[C@H](C(N)=O)[C@@H](C)CC)NC(=O)[C@H](Cc2c[nH]c4ccccc24)NC(=O)[C@H](CC(C)C)NC(=O)[C@H](CCCCN)NC3=O)NC1=O` [compound 436] was tested. Which IC50 did it give?
Its IC50 is 2960 pM.

Which IC50 does the source give for `C#CC[C@H](N)C(=O)NCCCC[C@@H]1NC(=O)[C@H](CCCNC(=N)N)NC(=O)[C@H](CCCCN)NC(=O)[C@H](CO)NC(=O)[C@H](CC(=O)O)NC(=O)[C@@H]2CSSC[C@@H]3NC(=O)[C@H](CCC(=O)O)NC(=O)[C@H](CC(C)C)NC(=O)CNC(=O)[C@H](CCC(=O)O)NC(=O)[C@H](CSSC[C@H](NC(=O)[C@H](Cc4ccc(O)cc4)NC(=O)[C@@H](N)CCC)C(=O)N[C@@H](CCC(N)=O)C(=O)N[C@@H](CCCCN)C(=O)N[C@@H](Cc4c[nH]c5ccccc45)C(=O)N[C@@H](CCCC)C(=O)N[C@@H](Cc4c[nH]c5ccccc45)C(=O)N[C@@H]([C@@H](C)O)C(=O)N2)NC(=O)[C@H](CSSC[C@@H](C(=O)N[C@@H](CCCNC(=N)N)C(=O)N[C@@H](CCCCN)C(=O)N[C@H](C(=O)N[C@@H](Cc2c[nH]c4ccccc24)C(N)=O)[C@@H](C)CC)NC(=O)[C@H](Cc2c[nH]c4ccccc24)NC(=O)[C@H](CC(C)C)NC(=O)[C@H](CCCCN)NC3=O)NC1=O` [compound 437] here?
The IC50 was 9590 pM.

`C#CC[C@H](N)C(=O)NCCCC[C@@H]1NC(=O)[C@H](CCCNC(=N)N)NC(=O)[C@H](CCCCN)NC(=O)[C@H](CO)NC(=O)[C@H](CC(=O)O)NC(=O)[C@@H]2CSSC[C@@H]3NC(=O)[C@H](CCCNC(=N)N)NC(=O)[C@H](CC(C)C)NC(=O)CNC(=O)[C@H](CCC(=O)O)NC(=O)[C@H](CSSC[C@H](NC(=O)[C@H](Cc4ccc(O)cc4)NC(=O)[C@@H](N)CCC)C(=O)N[C@@H](CCC(N)=O)C(=O)N[C@@H](CCCCN)C(=O)N[C@@H](Cc4c[nH]c5ccccc45)C(=O)N[C@@H](CC(C)C)C(=O)N[C@@H](Cc4c[nH]c5ccccc45)C(=O)N[C@@H]([C@@H](C)O)C(=O)N2)NC(=O)[C@H](CSSC[C@@H](C(=O)N[C@@H](CCCNC(=N)N)C(=O)N[C@@H](CCCCN)C(=O)N[C@@H](CCC(=O)O)C(=O)N[C@H](C(N)=O)[C@@H](C)CC)NC(=O)[C@H](Cc2c[nH]c4ccccc24)NC(=O)[C@H](CC(C)C)NC(=O)[C@H](CCCCN)NC3=O)NC1=O` [compound 439] was tested. Which IC50 did it give?
Its IC50 is 1040 pM and 1370 pM and 384 pM and 612 pM.

same assay, conditions: PatchXpress; * = at high concentrations compound would wash off slowly or not at all; read-out: PX hNav1.7 Tonic IC50

Which IC50 does the source give for `CCCC[C@@H]1NC(=O)[C@H](Cc2c[nH]c3ccccc23)NC(=O)[C@H](CCCCN)NC(=O)[C@H](CCC(N)=O)NC(=O)[C@@H](NC(=O)[C@H](Cc2ccc(O)cc2)NC(=O)[C@@H](N)Cc2ccccc2)CSSC[C@@H]2NC(=O)[C@@H]3CSSC[C@@H](C(=O)N[C@@H](CCCNC(=N)N)C(=O)N[C@@H](CCCCN)C(=O)N[C@H](C(=O)N[C@H](C(N)=O)[C@@H](C)CC)[C@@H](C)CC)NC(=O)[C@H](Cc4c[nH]c5ccccc45)NC(=O)[C@H](CC(C)C)NC(=O)[C@H](CCCCN)NC(=O)[C@H](CSSC[C@H](NC(=O)[C@H]([C@@H](C)O)NC(=O)[C@H](Cc4c[nH]c5ccccc45)NC1=O)C(=O)N[C@@H](CC(=O)O)C(=O)N[C@@H](CO)C(=O)N[C@@H](CCCCN)C(=O)N[C@@H](CCCNC(=N)N)C(=O)N[C@@H](C)C(=O)N3)NC(=O)[C@H](CCCNC(=N)N)NC(=O)[C@H](CC(C)C)NC(=O)CNC(=O)[C@H](CCC(=O)O)NC2=O` [compound 358] here?
The IC50 was 493 pM.

For `CCCC[C@@H]1NC(=O)[C@H](Cc2c[nH]c3ccccc23)NC(=O)[C@H](CCCCN)NC(=O)[C@H](CCC(N)=O)NC(=O)[C@@H](NC(=O)[C@H](Cc2ccc(O)cc2)NC(=O)CN)CSSC[C@@H]2NC(=O)[C@@H]3CSSC[C@@H](C(=O)N[C@@H](CCCNC(=N)N)C(=O)N[C@@H](CCCCN)C(=O)N[C@H](C(=O)N[C@H](C(N)=O)[C@@H](C)CC)[C@@H](C)CC)NC(=O)[C@H](Cc4c[nH]c5ccccc45)NC(=O)[C@H](CC(C)C)NC(=O)[C@H](CCCCN)NC(=O)[C@H](CSSC[C@H](NC(=O)[C@H]([C@@H](C)O)NC(=O)[C@H](Cc4c[nH]c5ccccc45)NC1=O)C(=O)N[C@@H](CC(=O)O)C(=O)N[C@@H](CO)C(=O)N[C@@H](CCCCN)C(=O)N[C@@H](CCCNC(=N)N)C(=O)N[C@@H](C)C(=O)N3)NC(=O)[C@H](CCCNC(=N)N)NC(=O)[C@H](CC(C)C)NC(=O)CNC(=O)[C@H](CCC(=O)O)NC2=O` [compound 359], which IC50 is on record?
The IC50 was 384 pM.

`CCCC[C@@H]1NC(=O)[C@H](Cc2c[nH]c3ccccc23)NC(=O)[C@H](CCCCN)NC(=O)[C@H](CCC(N)=O)NC(=O)[C@@H](NC(=O)[C@H](Cc2ccc(O)cc2)NC(=O)[C@@H](N)[C@@H](C)CC)CSSC[C@@H]2NC(=O)[C@@H]3CSSC[C@@H](C(=O)N[C@@H](CCCNC(=N)N)C(=O)N[C@@H](CCCCN)C(=O)N[C@H](C(=O)N[C@H](C(N)=O)[C@@H](C)CC)[C@@H](C)CC)NC(=O)[C@H](Cc4c[nH]c5ccccc45)NC(=O)[C@H](CC(C)C)NC(=O)[C@H](CCCCN)NC(=O)[C@H](CSSC[C@H](NC(=O)[C@H]([C@@H](C)O)NC(=O)[C@H](Cc4c[nH]c5ccccc45)NC1=O)C(=O)N[C@@H](CC(=O)O)C(=O)N[C@@H](CO)C(=O)N[C@@H](CCCCN)C(=O)N[C@@H](CCCNC(=N)N)C(=O)N[C@@H](C)C(=O)N3)NC(=O)[C@H](CCCNC(=N)N)NC(=O)[C@H](CC(C)C)NC(=O)CNC(=O)[C@H](CCC(=O)O)NC2=O` [compound 360] was tested. Which IC50 did it give?
Its IC50 is 519 pM.

With `CCCC[C@@H]1NC(=O)[C@H](Cc2c[nH]c3ccccc23)NC(=O)[C@H](CCCCN)NC(=O)[C@H](CCC(N)=O)NC(=O)[C@@H](NC(=O)[C@H](Cc2ccc(O)cc2)NC(=O)[C@@H]2CCCN2)CSSC[C@@H]2NC(=O)[C@@H]3CSSC[C@@H](C(=O)N[C@@H](CCCNC(=N)N)C(=O)N[C@@H](CCCCN)C(=O)N[C@H](C(=O)N[C@H](C(N)=O)[C@@H](C)CC)[C@@H](C)CC)NC(=O)[C@H](Cc4c[nH]c5ccccc45)NC(=O)[C@H](CC(C)C)NC(=O)[C@H](CCCCN)NC(=O)[C@H](CSSC[C@H](NC(=O)[C@H]([C@@H](C)O)NC(=O)[C@H](Cc4c[nH]c5ccccc45)NC1=O)C(=O)N[C@@H](CC(=O)O)C(=O)N[C@@H](CO)C(=O)N[C@@H](CCCCN)C(=O)N[C@@H](CCCNC(=N)N)C(=O)N[C@@H](C)C(=O)N3)NC(=O)[C@H](CCCNC(=N)N)NC(=O)[C@H](CC(C)C)NC(=O)CNC(=O)[C@H](CCC(=O)O)NC2=O` [compound 362] as the compound, how does the IC50 read?
Its IC50 is 372 pM.

`CCCC[C@@H]1NC(=O)[C@H](Cc2c[nH]c3ccccc23)NC(=O)[C@H](CCCCN)NC(=O)[C@H](CCC(N)=O)NC(=O)[C@@H](NC(=O)[C@H](Cc2ccc(O)cc2)NC(=O)[C@@H](N)C(C)C)CSSC[C@@H]2NC(=O)[C@@H]3CSSC[C@@H](C(=O)N[C@@H](CCCNC(=N)N)C(=O)N[C@@H](CCCCN)C(=O)N[C@H](C(=O)N[C@H](C(N)=O)[C@@H](C)CC)[C@@H](C)CC)NC(=O)[C@H](Cc4c[nH]c5ccccc45)NC(=O)[C@H](CC(C)C)NC(=O)[C@H](CCCCN)NC(=O)[C@H](CSSC[C@H](NC(=O)[C@H]([C@@H](C)O)NC(=O)[C@H](Cc4c[nH]c5ccccc45)NC1=O)C(=O)N[C@@H](CC(=O)O)C(=O)N[C@@H](CO)C(=O)N[C@@H](CCCCN)C(=O)N[C@@H](CCCNC(=N)N)C(=O)N[C@@H](C)C(=O)N3)NC(=O)[C@H](CCCNC(=N)N)NC(=O)[C@H](CC(C)C)NC(=O)CNC(=O)[C@H](CCC(=O)O)NC2=O` [compound 363] was tested. Which IC50 did it give?
Its IC50 is 551 pM.

With `CCCC[C@@H]1NC(=O)[C@H](Cc2c[nH]c3ccccc23)NC(=O)[C@H](CCCCN)NC(=O)[C@H](CCC(N)=O)NC(=O)[C@@H](NC(=O)[C@H](Cc2ccc(O)cc2)NC(=O)[C@@H](N)Cc2ccc(O)cc2)CSSC[C@@H]2NC(=O)[C@@H]3CSSC[C@@H](C(=O)N[C@@H](CCCNC(=N)N)C(=O)N[C@@H](CCCCN)C(=O)N[C@H](C(=O)N[C@H](C(N)=O)[C@@H](C)CC)[C@@H](C)CC)NC(=O)[C@H](Cc4c[nH]c5ccccc45)NC(=O)[C@H](CC(C)C)NC(=O)[C@H](CCCCN)NC(=O)[C@H](CSSC[C@H](NC(=O)[C@H]([C@@H](C)O)NC(=O)[C@H](Cc4c[nH]c5ccccc45)NC1=O)C(=O)N[C@@H](CC(=O)O)C(=O)N[C@@H](CO)C(=O)N[C@@H](CCCCN)C(=O)N[C@@H](CCCNC(=N)N)C(=O)N[C@@H](C)C(=O)N3)NC(=O)[C@H](CCCNC(=N)N)NC(=O)[C@H](CC(C)C)NC(=O)CNC(=O)[C@H](CCC(=O)O)NC2=O` [compound 365] as the compound, how does the IC50 read?
Its IC50 is 372 pM.

Which IC50 does the source give for `C=CC[C@H](N)C(=O)N[C@@H](Cc1ccc(O)cc1)C(=O)N[C@H]1CSSC[C@@H]2NC(=O)[C@@H]3CSSC[C@@H](C(=O)N[C@@H](CCCNC(=N)N)C(=O)N[C@@H](CCCCN)C(=O)N[C@H](C(=O)N[C@H](C(N)=O)[C@@H](C)CC)[C@@H](C)CC)NC(=O)[C@H](Cc4c[nH]c5ccccc45)NC(=O)[C@H](CC(C)C)NC(=O)[C@H](CCCCN)NC(=O)[C@H](CSSC[C@H](NC(=O)[C@H]([C@@H](C)O)NC(=O)[C@H](Cc4c[nH]c5ccccc45)NC(=O)[C@H](CCCC)NC(=O)[C@H](Cc4c[nH]c5ccccc45)NC(=O)[C@H](CCCCN)NC(=O)[C@H](CCC(N)=O)NC1=O)C(=O)N[C@@H](CC(=O)O)C(=O)N[C@@H](CO)C(=O)N[C@@H](CCCCN)C(=O)N[C@@H](CCCNC(=N)N)C(=O)N[C@@H](C)C(=O)N3)NC(=O)[C@H](CCCNC(=N)N)NC(=O)[C@H](CC(C)C)NC(=O)CNC(=O)[C@H](CCC(=O)O)NC2=O` [compound 367] here?
The IC50 was 488 pM.
